The structures appear in SMILES notation.

In one series the test system is Social Phobia. In words: Treatment of subjects diagnosed with Social Phobia. The following applies: subjects aged 18 to 55 years with Social Phobia; about 40 to about 200 mg/day. The format is in vivo, human.
The test system of a further series is Specific Phobia. In words: Treatment of subjects diagnosed with Specific Phobia. The class given is in vivo, human. The following applies: subjects aged 18 to 55 years with Specific Phobia; about 40 to about 200 mg/day.

Consider `O=C1Cc2cc(CCN3CCN(c4nsc5ccccc45)CC3)c(Cl)cc2N1` [Ziprasidone, 5-(2-(4-(1,2-benzisothiazol-3-yl)piperazinyl)ethyl)chlorooxindole], for which the “tolerability / side effects” value in the series on Social Phobia and in the series with Specific Phobia was “well tolerated” in each case.

Source of the values: US20050004138A1 (Pfizer Inc, priority 2003, published 2005).
